Here are results for two compounds from PubChem BioAssay (NCI).

Some test systems named below: DLD-1 colon; DMS 114 small cell lung; DMS 273 small cell lung; HOP-18 NSCLC; HT29 colon; KM20L2 colon; M19-MEL melanoma; P388 leukemia; P388/ADR leukemia; SN12C renal; SN12K1 renal; SNB-78 CNS; XF 498 CNS; LXFL 529 NSCLC.
Common to all, as to assay: NCI tumour cell line growth inhibition, 48 h

The structures appear in SMILES notation.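 Protocol summary: plate cells (96-well), add compound at 5 concentrations, incubate 48 h, interpolate endpoints linearly. TGI denotes the concentration required for complete inhibition of growth.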 Some results are limits rather than exact numbers.

Consider `CC1=C2C(O)C(C(C)C(=O)NCC(C)C)CCC2(C)C=CC1=O` (configuration not stated), for which the TGI in the experiment with DLD-1 colon, in the experiment with DMS 114 small cell lung, with DMS 273 small cell lung, in the experiment with HOP-18 NSCLC, in the experiment on HT29 colon and with KM20L2 colon was above 100 µM in each case. The TGI in the experiment with M19-MEL melanoma, in the experiment on P388 leukemia, in the experiment with P388/ADR leukemia, in the experiment with SN12C renal, in the experiment with SN12K1 renal and in the experiment on SNB-78 CNS was above 100 µM in each case. In the experiment on XF 498 CNS, this compound had a TGI above 100 µM.
On to `CN(C)c1nc(N(C)C)nc(N(C)C)n1`, for which the TGI in the experiment with DLD-1 colon is above 150 µM; in the experiment with DMS 114 small cell lung, above 150 µM; in the experiment with DMS 273 small cell lung it was above 147 µM; with HOP-18 NSCLC, 87.3 µM; in the experiment on HT29 colon, above 150 µM; in the experiment on KM20L2 colon, above 150 µM. Moreover, the TGI with LXFL 529 NSCLC was above 150 µM; in the experiment on M19-MEL melanoma, above 148 µM; in the experiment on P388 leukemia, above 150 µM; with P388/ADR leukemia, above 136 µM; in the experiment with SN12C renal, above 150 µM; with SN12K1 renal, above 150 µM. The TGI is above 150 µM in the experiment with SNB-78 CNS and above 116 µM in the experiment on XF 498 CNS.
